These results are taken from patent US20240228491A1, “METHIONINE ADENOSYLTRANSFERASE INHIBITOR, PREPARATION METHOD THEREFOR AND APPLICATION THEREOF” (SCINNOHUB PHARMACEUTICAL CO., LTD., priority 2021, published 2024).

Where two headings read alike, the source gives them in different places.

Data set [1] has as its target MAT2a (Homo sapiens (Human), UniProt P31153). In words: MAT2a enzymatic activity test (colorimetric assay). In kind it is biochemical. Conditions: OD620, 150 min reaction, read-out: IC50 against MAT2a. Summed up: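 MAT2a (20 μg/mL working solution) was preincubated 15 min with compound (10-point, 3-fold series from 1 or 10 μM) in Tris/KCl/MgCl2 buffer, pH 8.0. Reaction with 400 μM ATP and 600 μM L-methionine (substrate-mix concentrations) ran 150 min. Phosphate was detected by BIOMOL Green at OD620, with IC50 from log(inhibitor)-response fitting.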

The test system of data set [2] is KP-4 cells. Briefly: Inhibitory activity test of KP-4 cells. In kind it is cell-based. The settings on record: Homo sapiens, 144 h incubation, read-out: KP-4 cell inhibitory activity IC50. The method, then:
On day 1, cell seeding: after digestion of the cells with trypsin, the cells were resuspended to 1*10^4/mL with RPMI1640 complete medium (HyClone Company, Cat. No. SH30809.01) supplemented with 10% FBS (Gibco, 10099141C), mixed evenly, and added into the 96-well plate at 100 μL/well. The plate was put back to the incubator for the adherent growth of cells. On day 2, the addition of the compounds to be tested: 100 μL of the complete medium containing the compounds (the concentration of the compound in the medium was formulated as follows: 3-fold gradient dilution from 60 μM, 10 concentration gradients in total) was added, incubated for 144 hours at 37° C., 5% CO2. On day 8, the cell culture plates were taken out from incubator and equilibrated to room temperature, excess medium was pipetted from the wells so that 50 μL of supernatant was retained, and 50 μL of CellCounting-Lite 2.0 (Nanjing Vazyme Biotech Co., Ltd., Cat. No. DD1101) reagent was added per well, and the cells were fully lysed by shaking at room temperature for 10 min, and incubated for 5 min to detect the fluorescence intensity.
% Inhibition=100−(signal of the well with the compound to be tested−signal of the well with only medium and free of cells)/(signal of the well with cells but without addition of the compound−signal of the well with only medium and free of cells)×100.
(§1) The log value of concentration was used as the X-axis and % Inhibition was used as the Y-axis, so as to fit the dose-effect curve and calculate the IC50 value using nonlinear regression (dose response−variable slope) in the analysis software GraphPad Prism 8.

Data set [3] concerns DOHH-2 cells. In words: Inhibitory activity test of DOHH-2 cells. In kind it is cell-based. The settings on record: Homo sapiens, 120 h incubation, CellTiter-Glo, read-out: DOHH-2 cell inhibitory activity IC50. The method, then:
On day 1, cell seeding: cells were resuspended to the desired density with DMEM complete medium (Gibico, Cat. No. 10569010) supplemented with 10% FBS (Gibco, 10099141C), mixed evenly, and added into the 384-well plate at 30 μL/well with a cell density of 800/well. The compounds to be tested were added as follows: 30 nL of DMSO solution containing the compound (the concentration of the compound in which was formulated as: 3-fold gradient dilution from 10 mM, 10 concentration points in total) was added, incubated for 120 h at 37° C., 5% CO2. On day 6, the cells treated with compounds were removed and equilibrated to room temperature, 30 μL of CellTiter-Glo (Promega company, Cat. No. G7573) reagent was added per well, and the cells were fully lysed by shaking at room temperature, and then incubated in dark at 37° C., 5% CO2 for 30 min, to detect the fluorescence intensity.
% Inhibition=100−(signal of the well with the compound to be tested−signal of the well with only medium and free of cells)/(signal of the well with cells but without the addition of the compound−signal of the well with only medium and free of cells)×100.
as §1

Data set [4] is described as follows: In vivo pharmacokinetic study in ICR mice. The settings on record: plasma; for AUC(0-t): read-out: Area under curve AUC(0-t); for Cmax: read-out: Maximal concentration Cmax. The method, then: Species: ICR mice, SPF grade. Source: Shanghai Xipuer-Bikai Laboratory Animal Co., Ltd. Number: 3 mice per dosage form.
2.1 An appropriate amount of the test sample was accurately weighed, into which 5% DMSO, 10% polyethylene glycol-15 hydroxystearate, 85% normal saline (all in volume percent) were added sequentially, and were fully mixed via vortex or ultrasound, to obtain the dosing solution with a test sample concentration of 0.4 mg/mL for intravenous administration.
2.2 An appropriate amount of the test sample was accurately weighed, into which 5% DMSO, 10% polyethylene glycol-15 hydroxystearate, 85% normal saline (all in volume percent) were added sequentially, and were fully mixed via vortex or ultrasound, to obtain the dosing solution with a test sample concentration of 1 mg/mL for oral gavage administration.
Weighing was performed before administration, and the administration amount was calculated according to the body weight. The drug was administered orally by gavage or intravenously.
Before and 0.083 h, 0.25 h, 0.5 h, 1 h, 2 h, 4 h, 6 h, 8 h, 24 h after administration.
Blood was collected via submandibular vein or other suitable means, and approximately 0.03 mL per sample was collected via anticoagulation with heparin sodium. Blood samples were placed on ice after collection and centrifuged to separate plasma within 1 h (centrifugation conditions: centrifugal force of 6800 g, 6 min, 2-8° C.). The collected plasma samples were stored in a −80° C. refrigerator before analysis, and the remaining plasma samples continued to be stored in a −80° C. refrigerator for temporary storage after analysis.
When plot the plasma concentration-time curve according to the detected plasma concentration of the test substance, BLQ (Beneath Limit of Quantification) was recorded as 0. When calculating pharmacokinetic parameters, the concentration before administration was calculated as 0; BLQ (including “No peak”) before Cmax was calculated as 0; BLQ (including “No peak”) after Cmax was not involved in the calculation. Pharmacokinetic parameters, such as AUC(0-t), T1/2, Cmax, etc., were calculated by WinNonlin using the plasma concentration data at different time points.

MAT2a, sequence (P31153 whole entry): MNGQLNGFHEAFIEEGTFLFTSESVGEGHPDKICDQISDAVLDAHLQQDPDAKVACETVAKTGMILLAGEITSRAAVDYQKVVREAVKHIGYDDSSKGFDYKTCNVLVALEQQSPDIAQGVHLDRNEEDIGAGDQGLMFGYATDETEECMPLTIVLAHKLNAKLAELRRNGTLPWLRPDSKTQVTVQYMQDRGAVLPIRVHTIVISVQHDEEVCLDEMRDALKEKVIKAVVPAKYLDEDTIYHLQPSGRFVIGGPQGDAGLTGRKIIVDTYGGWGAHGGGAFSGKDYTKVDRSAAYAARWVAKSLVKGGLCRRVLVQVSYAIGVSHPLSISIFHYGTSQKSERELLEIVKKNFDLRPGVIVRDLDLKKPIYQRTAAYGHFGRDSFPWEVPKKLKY

What is called IC50 is the concentration at which inhibition is half-maximal. The AUC(0-t) is the area under the concentration-time curve up to a stated or last time point. For the molecule `Nc1c(-c2ccc3nccnc3c2)c(=O)n(-c2ccc(Cl)cc2)c2nc(C(F)(F)F)ccc12` [Example 36], the values for the IC50 in data set [1], in data set [2] and in data set [3] were 13.6 nM, 360 nM and 7 nM, respectively. Also, the “Apparent clearance rate Cl” value in data set [4] (IV 2 mg/kg) is given as 1.03 mL/min/kg. Besides, the AUC(0-t) in data set [4] (mouse, IV 2 mg/kg) amounted to 31.7 µg·h/mL; in data set [4] (mouse, PO 10 mg/kg), 211 µg·h/mL. The half-life was 5.53 h in data set [4] (mouse, IV 2 mg/kg, read-out: Half life T1/2 (converted)) and 9.32 h in data set [4] (mouse, PO 10 mg/kg, read-out: Half life t1/2 (converted)). Moreover, the Cmax came to 3540 ng/mL in data set [4] (mouse, IV 2 mg/kg) and 18100 ng/mL in data set [4] (mouse, PO 10 mg/kg). In addition, the bioavailability in data set [4] (mouse, PO 10 mg/kg vs IV 2 mg/kg, read-out: Bioavailability F %) was found to be 133%.
